Values quoted from earlier work in patent US12708655B2, “Botanicals as WNT/beta-catenin activators, molecular pathway regulators, tissue regenerators and health biomarker regulators” (Arbor Life Holdings, Ltd., priority 2020, dated 2026).

How the values were obtained:
[1] = compounds found in Eclipta; NA = Not Applicable; cited from earlier work
[2] = compounds found in Eclipta; NA = Not Applicable; cited from earlier work; remark: listed apart in the source

Molecule | Anticancer activity (AC) [1] | Antioxidant activity (AO) [2]
O=C(O)c1cc(O)c(O)c(O)c1 [Gallic acid] | YES | YES
COC[C@@H]1Cc2cc(OC)c3c(c2[C@H](c2ccc(OC)c(OC)c2)[C@H]1COC)OCO3 [Hypophyllanthin] | YES | YES
O=c1oc2cc(O)cc(O)c2c2oc3cc(O)c(O)cc3c12 [Demethylwedelolactone] | YES | YES
O=C(O)c1ccc(O)cc1 [4-hydroxybenzoic acid] | YES | YES
C[C@@H]1O[C@@H](Oc2c(-c3ccc(O)c(O)c3)oc3cc(O)cc(O)c3c2=O)[C@H](O)[C@H](O)[C@H]1O [Quercetin-3-rhamnoside] | YES | YES
O=C(/C=C/c1ccc(O)c(O)c1)c1ccc(O)cc1O [Butein] | YES | YES
O=c1cc(-c2ccc(O)c(O)c2)oc2cc(O)cc(O)c12 [Luteolin] | YES | YES
Demethylwedelolactone 7-glucoside | YES | YES
O=C(O)c1ccc(O)c(O)c1 [3,4-dihydroxybenzoic acid] | YES | YES
OCc1ccc(-c2ccc(-c3cccs3)s2)s1 [α-terthienyl methanol] | YES | 
Oc1ccccc1O [Catechol] | YES | YES
CC[C@H](CC[C@@H](C)[C@H]1CC[C@H]2[C@@H]3CC=C4C[C@@H](O)CC[C@]4(C)[C@H]3CC[C@]12C)C(C)C [β-sitosterol] | YES | YES
O[C@H]1[C@H](O)[C@@H](O)[C@H](O)[C@@H](O)[C@H]1O [Myoinositol] | YES | YES
Echinocystic acid | YES | 
CC[C@H](/C=C/[C@@H](C)[C@H]1CC[C@H]2[C@@H]3CC=C4C[C@@H](O)CC[C@]4(C)[C@H]3CC[C@]12C)C(C)C [Stigmasterol] | YES | YES
CC1(C)CC[C@]2(C)CC[C@]3(C)C(=CC[C@@H]4[C@@]5(C)CC[C@H](O)C(C)(C)[C@@H]5CC[C@]43C)[C@@H]2C1 [β-amyrin] |  | YES
O=c1cc(-c2ccc(O)cc2)oc2cc(O[C@@H]3O[C@H](CO)[C@@H](O)[C@H](O)[C@H]3O)cc(O)c12 [Apigenin-7-O-glucoside] | YES | YES
O=c1cc(-c2ccc(O)c(O)c2)oc2cc(O[C@@H]3O[C@H](CO)[C@@H](O)[C@H](O)[C@H]3O)cc(O)c12 [Cynaroside] | YES | YES
O=C(O)c1cccnc1 [Nicotinic acid] | YES | YES
COc1cc(O)c2c(c1)oc(=O)c1c3cc(O)c(O)cc3oc21 [Wedelolactone] | YES | YES
O=c1cc(-c2ccc(O)cc2)oc2cc(O)cc(O)c12 [Apigenin] | YES | YES
